Structures can show the parent of a compound that is named as a salt.

In general, MIC refers to the least concentration at which growth counts as inhibited.

The first test can be described thus: MIC of test compounds against various organisms. Type of test: cell-based.
Settings: not given
For the compound `COc1ccc2nccc(NC(=O)C3=CCC(N(CC(=O)O)Cc4ccc5c(c4)NC(=O)CS5)CC3)c2n1` (racemic) [Example 156, (R/S)-4-[Carboxymethyl-(3-oxo-3,4-dihydro-2H-benzo[1,4]thiazin-6-ylmethyl)-amino]-cyclohex-1-enecarboxylic Acid (6-methoxy-[1,5]naphthyridin-4-yl)-amide Bis(trifluoroacetate) Salt], the MIC is ≤ 16 µg/mL.

The same test, now with this note: versus all these organisms (panel of 10 strains); read-out: MIC.
For `COc1ccc2nccc(NC(=O)C3=CCC(NCc4ccc5c(c4)NC(=O)CS5)CC3)c2n1` (racemic) [Example 150, (R/S)-4-[(3-Oxo-3,4-dihydro-2H-benzo-[1,4]thiazin-6ylmethyl)-amino]-cyclohex-1-ene carboxylic acid (6-methoxy-[1,5]naphthyridin-4-yl)-amide oxalate], the MIC is ≤ 4 µg/mL. Still for that read-out and setting: the result for `COc1ccc2nccc(NC(=O)C3=CCC(NCc4cnc5c(c4)NC(=O)CS5)CC3)c2n1` (racemic) [Example 153, (R/S)-4-[(2-Oxo-2,3-dihydro-1H-pyrido[2,3-b][1,4]thiazin-7-ylmethyl)-amino]-cyclohex-1-ene carboxylic acid (6-methoxy-[1,5]naphthyridin-4-yl)-amide oxalate] reads ≤ 4 µg/mL; that for `COc1ccc2nccc(NC(=O)C3=CCC(NCc4cc5c(cc4F)OCC(=O)N5)CC3)c2n1` (racemic) [Example 154, (R/S)-4-[(7-Fluoro-3-oxo-3,4-dihydro-2H-benzo[1,4]oxazin-6-ylmethyl)-amino]-cyclohex-1-ene carboxylic acid (6-methoxy-[1,5]naphthyridin-4-yl)-amide oxalate], ≤ 4 µg/mL; that for `COc1ccc2nccc(NC(=O)C3=CCC(NCc4cnc5c(c4)NC(=O)CO5)CC3)c2n1` (racemic) [Example 155, (R/S)-4-[(2-Oxo-2,3-dihydro-1H-pyrido[2,3-b][1,4]oxazin-7-ylmethyl)-amino]-cyclohex-1-enecarboxylic Acid (6-methoxy-[1,5]naphthyridin-4-yl)-amide oxalate], ≤ 16 µg/mL. The same measure, in the same setting: for `COc1ccc2nccc(NC(=O)[C@H]3CC[C@H](NCc4ccc5nsnc5c4)CC3)c2n1` [Example 2, Trans-4-[(Benzo[1,2,5]thiadiazol-5-ylmethyl)-amino]-cyclohexanecarboxylic acid (6-methoxy-[1,5]naphthyridin-4-yl)-amide fumarate salt] the value was ≤ 4 µg/mL; for `COc1ccc2nccc(NC(=O)[C@H]3CC[C@H](NCc4cc5cccnc5[nH]4)CC3)c2n1` [Example 3, Trans-4-[(1H-Pyrrolo[2,3-b]pyridin-2-ylmethyl)-amino]-cyclohexanecarboxylic acid (6-methoxy-[1,5]naphthyridin4-yl)-amide fumarate salt], ≤ 4 µg/mL; for `COc1ccc2nccc(NC(=O)[C@H]3CC[C@H](NCc4ccc5c(c4)NC(=O)CS5)CC3)c2n1` [Example 4, Trans-4-[(3-Oxo-3,4-dihydro-2H-benzo[1,4]thiazin-6-ylmethyl)-amino]-cyclohexane carboxylic acid (6-methoxy-[1,5]naphthyridin-4-yl)-amide fumarate salt], ≤ 4 µg/mL. Same read-out and setting: for `COc1ccc2nccc(NC(=O)[C@H]3CC[C@H](NCc4ccc5c(c4)OCCO5)CC3)c2n1` [Example 5, Trans-4-[(2,3-Dihydro-benzo[1,4]dioxin-6-ylmethyl)-amino]-cyclohexanecarboxylic acid (6-methoxy-[1,5]naphthyridin-4-yl)-amide fumarate salt] the value was ≤ 4 µg/mL.

Take `COc1ccc2nccc(NC(=O)[C@H]3CC[C@H](NCc4ccc5snnc5c4)CC3)c2n1` [Example 6, Trans-4-[(Benzo[1,2,3]thiadiazol-5-ylmethyl)-amino]-cyclohexanecarboxylic acid (6-methoxy-[1,5]naphthyridin-4-yl)-amide fumarate salt]: the MIC was ≤ 4 µg/mL.

On to `COc1ccc2nccc(NC(=O)[C@H]3CC[C@H](NCc4ccc5c(c4)oc(=O)n5C)CC3)c2n1` [Example 7, Trans-4-[(3-Methyl-2-oxo-2,3-dihydro-benzooxazol-6-ylmethyl)-amino]-cyclohexanecarboxylic acid (6-methoxy-[1,5]naphthyridin-4-yl)-amide oxalate salt], for which the MIC is ≤ 64 µg/mL. Same read-out and setting: the result for `COc1ccc2nccc(NC(=O)[C@H]3CC[C@H](NCc4ccc5c(c4)NC(=O)CO5)CC3)c2n1` [Example 8, Trans-4-[(3-Oxo-3,4-dihydro-2H-benzo[1,4]oxazin-6-ylmethyl)-amino]-cyclohexanecarboxylic acid (6-methoxy-[1,5]naphthyridin-4-yl)-amide fumarate salt] reads ≤ 4 µg/mL; that for `COc1ccc2nccc(NC(=O)[C@H]3CC[C@H](NCc4cc5c(cc4F)OCC(=O)N5)CC3)c2n1` [Example 9], ≤ 4 µg/mL. On the same count and under the same terms, the result for `COc1cc(F)c2nccc(NC(=O)[C@H]3CC[C@H](NCc4ccc5c(c4)OCCO5)CC3)c2c1` [Example 10, Trans-4-[(2,3-Dihydro-benzo[1,4]dioxin-6-ylmethyl)-amino]-cyclohexanecarboxylic acid (8-fluoro-6-methoxy-quinolin-4-yl)-amide Fumarate Salt] reads ≤ 16 µg/mL; that for `COc1ccc2nccc(NC(=O)[C@H]3CC[C@H](NCc4ccc5c(c4)OCCO5)CC3)c2c1` [Example 11, Trans-4-[(2,3-Dihydro-benzo[1,4]dioxin-6-ylmethyl)-amino]-cyclohexanecarboxylic acid (6-methoxy-quinolin-4-yl)-amide fumarate salt], ≤ 16 µg/mL. Same read-out and setting: for `COc1ccc2nccc(NC(=O)[C@H]3CC[C@H](NCc4ccc5nsnc5c4)CC3)c2c1` [Example 12, Trans-4-[(Benzo[1,2,5]thiadiazol-5-ylmethyl)-amino]-cyclohexanecarboxylic acid (6-methoxy-quinolin-4-yl)-amide fumarate salt] the value was ≤ 4 µg/mL; for `COc1ccc2nccc(NC(=O)[C@H]3CC[C@H](NCc4cnc5c(c4)NC(=O)CS5)CC3)c2n1` [Example 13, Trans-4-[(2-Oxo-2,3-dihydro-1H-pyrido[2,3-b][1,4]thiazin-7-ylmethyl)-amino]-cyclohexanecarboxylic Acid (6-methoxy-[1,5]naphthyridin-4-yl)-amide oxalate salt], ≤ 4 µg/mL.

As for `COc1ccc2nccc(NC(=O)[C@H]3CC[C@H](NCc4cnc5c(c4)NC(=O)CS5)CC3)c2c1` [Example 14, Trans-4-[(2-Oxo-2,3-dihydro-1H-pyrido[2,3-b][1,4]thiazin-7-ylmethyl)-amino]-cyclohexanecarboxylic acid (6-methoxy-quinolin-4-yl)-amide oxalate salt], the MIC was ≤ 16 µg/mL.

In the case of `COc1ccc2nccc(NC(=O)[C@H]3CC[C@H](NCc4ccc5c(c4)NCCO5)CC3)c2n1` [Example 15, Trans-4-[(3,4-Dihydro-2H-benzo[1,4]oxazin-6-ylmethyl)-amino]-cyclohexanecarboxylic acid (6-methoxy-[1,5]naphthyridin-4-yl)-amide oxalate salt], the MIC is ≤ 16 µg/mL. Consider `COc1ccc2nccc(NC(=O)[C@H]3CC[C@H](NCc4cnc5scnc5c4)CC3)c2n1` [Example 16, Trans-4-[(Thiazolo[5,4-b]-pyridin-6-ylmethyl)-amino]-cyclohexanecarboxylic acid (6-methoxy-[1,5]naphthyridin-4-yl)-amide oxalate salt], for which the MIC was ≤ 16 µg/mL.

Values taken from patent US7141564B2, “Nitrogen-containing bicyclic heterocycles for use as antibacterials” (priority 2001, dated 2006).
